Assay type in all cases: binding
Assay [1] has as its target T1, Recombinant human integrin αVβ6 (Homo sapiens, UniProt P06756+P18564).
T1 construct: purchased R&D Systems 3817-AV
In words: Solid Phase Receptor Assay (SPRA) for αVβ6 function. The conditions noted are these: plate-bound human LAP.

The target in assay [2] is T2, Recombinant human integrin αVβ5 (Homo sapiens, UniProt P06756+P18084).
T2 construct: purchased R&D Systems 2528-AV
As to the kind of experiment: Solid Phase Receptor Assay (SPRA) for αVβ5 function. The conditions noted are these: plate-bound human vitronectin.

For assay [3], the target named is T3, Recombinant human integrin αvβ1 (Homo sapiens, UniProt P05556+P06756).
T3 construct: purchased R&D Systems 6579-AV
As to the kind of experiment: Solid Phase Receptor Assay (SPRA) for αVβ1 function. The conditions noted are these: plate-bound human fibronectin.

The target of assay [4] is T4, Recombinant human integrin αVβ8 (Homo sapiens, UniProt P06756+P26012).
T4 construct: purchased R&D Systems 4135-AV
As to the kind of experiment: Solid Phase Receptor Assay for αVβ8 function. The conditions noted are these: plate-bound human LAP; read-out: αVβ8 SPRA IC50.

Structures can show the parent of a compound that is named as a salt.

Our source for the IC50 values is patent US20210284638A1 (Saint Louis University, priority 2018, published 2021).

T4 sequence (P06756 31-992 limits assumed): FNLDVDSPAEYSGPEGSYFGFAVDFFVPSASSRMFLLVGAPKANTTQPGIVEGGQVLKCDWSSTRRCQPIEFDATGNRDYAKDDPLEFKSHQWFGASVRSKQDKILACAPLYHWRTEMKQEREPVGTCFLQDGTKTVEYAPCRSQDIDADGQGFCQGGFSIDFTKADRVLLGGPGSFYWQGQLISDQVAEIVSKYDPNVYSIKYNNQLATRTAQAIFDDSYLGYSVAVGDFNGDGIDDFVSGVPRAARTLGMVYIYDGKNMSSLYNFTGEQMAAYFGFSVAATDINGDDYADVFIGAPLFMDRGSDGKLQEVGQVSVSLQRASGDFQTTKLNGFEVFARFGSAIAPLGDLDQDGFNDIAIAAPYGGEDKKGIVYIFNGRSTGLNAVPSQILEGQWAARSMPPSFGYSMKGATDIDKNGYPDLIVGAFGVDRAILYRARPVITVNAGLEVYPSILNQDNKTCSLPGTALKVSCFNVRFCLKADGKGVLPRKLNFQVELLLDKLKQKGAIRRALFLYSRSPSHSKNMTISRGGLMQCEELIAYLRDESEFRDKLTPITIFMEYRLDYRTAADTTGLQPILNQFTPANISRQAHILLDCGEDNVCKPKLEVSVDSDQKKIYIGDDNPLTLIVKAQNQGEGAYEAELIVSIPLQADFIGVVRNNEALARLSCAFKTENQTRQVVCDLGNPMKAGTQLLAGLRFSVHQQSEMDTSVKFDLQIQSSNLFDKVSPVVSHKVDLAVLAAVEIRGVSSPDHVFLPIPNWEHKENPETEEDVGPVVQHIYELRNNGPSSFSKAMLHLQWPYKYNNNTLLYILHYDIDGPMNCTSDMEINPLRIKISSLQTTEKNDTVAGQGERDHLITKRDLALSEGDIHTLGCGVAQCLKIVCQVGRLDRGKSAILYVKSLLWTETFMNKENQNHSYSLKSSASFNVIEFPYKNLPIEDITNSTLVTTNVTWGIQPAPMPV
T4 sequence (P26012 43-684 limits assumed): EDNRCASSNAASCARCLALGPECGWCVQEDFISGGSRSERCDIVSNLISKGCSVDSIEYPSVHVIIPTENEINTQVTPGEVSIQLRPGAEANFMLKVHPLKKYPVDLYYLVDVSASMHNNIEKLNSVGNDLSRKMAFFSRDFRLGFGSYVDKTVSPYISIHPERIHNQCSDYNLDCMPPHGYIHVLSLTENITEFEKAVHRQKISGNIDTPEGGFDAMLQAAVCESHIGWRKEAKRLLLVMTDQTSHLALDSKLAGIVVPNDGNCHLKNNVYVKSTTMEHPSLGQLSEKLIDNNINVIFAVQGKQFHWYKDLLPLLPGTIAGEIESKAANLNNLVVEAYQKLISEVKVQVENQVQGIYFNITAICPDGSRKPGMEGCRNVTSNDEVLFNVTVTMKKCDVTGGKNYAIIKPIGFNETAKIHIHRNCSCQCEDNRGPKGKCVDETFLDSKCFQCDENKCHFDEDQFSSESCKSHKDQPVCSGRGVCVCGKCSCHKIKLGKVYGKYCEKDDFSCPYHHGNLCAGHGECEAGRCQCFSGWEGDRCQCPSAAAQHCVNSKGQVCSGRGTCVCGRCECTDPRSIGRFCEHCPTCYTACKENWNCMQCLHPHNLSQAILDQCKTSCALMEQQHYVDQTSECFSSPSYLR
T3 sequence (P06756 31-992 limits assumed): as the sequence (P06756 31-992 limits assumed) above
T3 sequence (P05556 21-728 limits assumed): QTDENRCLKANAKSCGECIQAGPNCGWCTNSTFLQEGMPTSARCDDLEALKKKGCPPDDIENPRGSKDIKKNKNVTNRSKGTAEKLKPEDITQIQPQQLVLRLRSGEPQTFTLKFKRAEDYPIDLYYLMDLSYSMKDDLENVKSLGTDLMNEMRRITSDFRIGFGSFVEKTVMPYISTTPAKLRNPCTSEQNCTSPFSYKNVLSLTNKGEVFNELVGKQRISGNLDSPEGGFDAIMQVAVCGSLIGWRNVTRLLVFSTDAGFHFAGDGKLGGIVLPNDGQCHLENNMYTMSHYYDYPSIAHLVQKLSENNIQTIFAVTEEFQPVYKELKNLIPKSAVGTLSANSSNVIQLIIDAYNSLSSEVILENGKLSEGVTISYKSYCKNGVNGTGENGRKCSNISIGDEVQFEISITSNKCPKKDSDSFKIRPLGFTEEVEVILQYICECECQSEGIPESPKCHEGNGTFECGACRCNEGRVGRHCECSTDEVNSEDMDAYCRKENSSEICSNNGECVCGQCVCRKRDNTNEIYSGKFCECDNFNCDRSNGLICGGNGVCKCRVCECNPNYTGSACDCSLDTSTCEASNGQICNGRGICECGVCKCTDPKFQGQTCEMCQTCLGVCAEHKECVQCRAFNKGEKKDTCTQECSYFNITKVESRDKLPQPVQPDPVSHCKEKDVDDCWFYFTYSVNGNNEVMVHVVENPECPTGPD
T1 sequence (P06756 31-992 limits assumed): as the sequence (P06756 31-992 limits assumed) above
T1 sequence (P18564 22-707 limits assumed): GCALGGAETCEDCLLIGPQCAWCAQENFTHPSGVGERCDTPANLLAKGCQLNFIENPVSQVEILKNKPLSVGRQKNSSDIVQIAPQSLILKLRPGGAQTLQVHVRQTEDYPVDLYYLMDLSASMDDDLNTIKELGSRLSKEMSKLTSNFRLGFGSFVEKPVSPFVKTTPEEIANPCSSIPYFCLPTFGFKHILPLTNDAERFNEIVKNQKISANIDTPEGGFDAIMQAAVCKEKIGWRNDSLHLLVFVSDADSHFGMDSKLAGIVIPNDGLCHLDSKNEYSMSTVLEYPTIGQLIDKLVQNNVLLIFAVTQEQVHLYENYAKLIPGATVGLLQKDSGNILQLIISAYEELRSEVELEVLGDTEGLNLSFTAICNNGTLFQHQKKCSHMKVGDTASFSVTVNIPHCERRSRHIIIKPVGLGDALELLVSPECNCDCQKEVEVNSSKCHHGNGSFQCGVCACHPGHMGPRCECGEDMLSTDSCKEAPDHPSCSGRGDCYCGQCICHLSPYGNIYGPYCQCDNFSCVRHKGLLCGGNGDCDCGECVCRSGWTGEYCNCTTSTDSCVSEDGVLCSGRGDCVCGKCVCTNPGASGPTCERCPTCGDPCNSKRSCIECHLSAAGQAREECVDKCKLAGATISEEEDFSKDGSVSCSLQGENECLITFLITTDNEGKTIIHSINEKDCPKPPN
T2 sequence (P06756 31-992 limits assumed): as the sequence (P06756 31-992 limits assumed) above
T2 sequence (P18084 24-719 limits assumed): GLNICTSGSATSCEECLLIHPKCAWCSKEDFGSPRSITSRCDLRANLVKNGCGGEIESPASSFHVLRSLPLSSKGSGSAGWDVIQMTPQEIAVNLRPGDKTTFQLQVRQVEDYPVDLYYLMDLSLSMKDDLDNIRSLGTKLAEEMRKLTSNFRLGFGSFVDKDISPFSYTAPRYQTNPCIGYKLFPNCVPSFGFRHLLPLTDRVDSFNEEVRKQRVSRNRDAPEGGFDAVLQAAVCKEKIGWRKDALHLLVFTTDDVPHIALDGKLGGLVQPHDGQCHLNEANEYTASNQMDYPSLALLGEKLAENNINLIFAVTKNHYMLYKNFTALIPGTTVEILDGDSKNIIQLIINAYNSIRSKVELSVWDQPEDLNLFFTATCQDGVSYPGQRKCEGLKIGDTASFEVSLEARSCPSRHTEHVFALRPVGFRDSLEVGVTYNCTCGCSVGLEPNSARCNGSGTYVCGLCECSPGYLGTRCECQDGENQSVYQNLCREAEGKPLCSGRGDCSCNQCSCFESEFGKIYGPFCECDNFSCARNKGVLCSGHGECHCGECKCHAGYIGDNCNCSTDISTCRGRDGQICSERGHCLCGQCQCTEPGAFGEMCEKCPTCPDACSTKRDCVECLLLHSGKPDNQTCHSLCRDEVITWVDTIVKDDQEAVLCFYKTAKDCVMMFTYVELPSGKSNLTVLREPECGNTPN

For orientation: IC50 means the concentration at which inhibition is half-maximal. For the compound `COc1c(C(CC(=O)O)Cc2cc(OCCc3ccc4c(n3)NCCC4)n(C)n2)cc(C(C)(C)C)cc1C(C)(C)C` (centres unmarked) [Example 11, 3-(3,5-di-tert-butyl-2-methoxyphenyl)-4-(1-methyl-5-(2-(5,6,7,8-tetrahydro-1,8-naphthyridin-2-yl)ethoxy)-1H-pyrazol-3-yl)butanoic acid], the IC50 in assay [1] was 11000 nM; in assay [2] it was 17000 nM; in assay [3] it was 800 nM; in assay [4] it was 740 nM.

As for `COc1ccc(C2CCOCC2)cc1C(CC(=O)O)Cc1csc(CCCc2ccc3c(n2)NCCC3)n1` (centres unmarked) [Example 43, 3-(2-methoxy-5-(tetrahydro-2H-pyran-4-yl)phenyl)-4-(2-(3-(5,6,7,8-tetrahydro-1,8-naphthyridin-2-yl)propyl)thiazol-4-yl)butanoic acid], the IC50 in assay [1] is 95 nM; in assay [2], 61 nM; in assay [3], 3 nM; in assay [4], 210 nM.

In the case of `Cn1nc(C[C@@H](CC(=O)O)c2cc3c(c(C(C)(C)C)c2)OCO3)cc1OCCc1ccc2c(n1)NCCC2` [Example 47], the IC50 was 15 nM in assay [1], 0.067 nM in assay [2], 0.92 nM in assay [3] and 34 nM in assay [4].

Consider `Cn1nc(CC(CC(=O)O)c2cc(C(C)(C)C)cc(C3(C(F)F)CC3)c2)cc1OCCc1ccc2c(n1)NCCC2` (centres unmarked) [Example 6, 3-(3-(tert-butyl)-5-(1-(difluoromethyl)cyclopropyl)phenyl)-4-(1-methyl-5-(2-(5,6,7,8-tetrahydro-1,8-naphthyridin-2-yl)ethoxy)-1H-pyrazol-3-yl)butanoic acid], for which the IC50 is 140 nM in assay [1], 54 nM in assay [2], 5 nM in assay [3] and 15 nM in assay [4].

In the case of `COc1c(C(C)C)cc(C(CC(=O)O)Cc2cc(OCCc3ccc4c(n3)NCCC4)n(C)n2)cc1C(C)C` (centres unmarked) [Example 25, 3-(3,5-diisopropyl-4-methoxy-phenyl)-4-[1-methyl-5-[2-(5,6,7,8-tetrahydro-1,8-naphthyridin-2-yl)ethoxy]pyrazol-3-yl]butanoic acid], the IC50 in assay [1] was 160 nM; in assay [2], 78 nM; in assay [3], 6 nM; in assay [4] it was 18 nM.

With `O=C(O)CC(Cc1cc(OCCc2ccc3c(n2)NCCC3)[nH]n1)c1cccc(F)c1` (centres unmarked) [CC2, reference compound], the IC50 in assay [1] is 54 nM; in assay [2] it was 0.2 nM; in assay [3], 19 nM; in assay [4], 680 nM.

In the case of `COc1c(C(C)C)cc(C(CC(=O)O)Cc2csc(CCCc3ccc4c(n3)NCCC4)n2)cc1C(C)C` (centres unmarked) [Example 26, 3-(3,5-diisopropyl-4-methoxy-phenyl)-4-[2-[3-(5,6,7,8-tetrahydro-1,8-naphthyridin-2-yl)propyl]thiazol-4-yl]butanoic acid], the 50% inhibitory concentration (IC50) in assay [1] was 330 nM; in assay [2], 610 nM; in assay [3], 8 nM; in assay [4], 38 nM.

Turning to `Cn1nc(CC(CC(=O)O)c2cc(C(C)(C)C)ccc2F)cc1OCCc1ccc2c(n1)NCCC2` (centres unmarked) [Example 19, 3-(5-(tert-butyl)-2-fluorophenyl)-4-(1-methyl-5-(2-(5,6,7,8-tetrahydro-1,8-naphthyridin-2-yl)ethoxy)-1H-pyrazol-3-yl)butanoic acid], the concentration for half-maximal inhibition (IC50) in assay [1] was 180 nM; in assay [2], 0.6 nM; in assay [3], 7 nM; in assay [4], 58 nM.

For the compound `Cn1nc(CC(CC(=O)O)c2cc(C(C)(C)C)cc(C(C)(C)CO)c2)cc1OCCc1ccc2c(n1)NCCC2` (centres unmarked) [Example 7, 3-[3-tert-butyl-5-(2-hydroxy-1,1-dimethyl-ethyl)phenyl]-4-[1-methyl-5-[2-(5,6,7,8-tetrahydro-1,8-naphthyridin-2-yl)ethoxy]pyrazol-3-yl]butanoic acid], the IC50 in assay [1] worked out at 300 nM; in assay [2], 27 nM; in assay [3], 3 nM; in assay [4], 18 nM.

As for `CC(C)c1cc(C(C)C)cc(C(CC(=O)O)Cc2cc(OCCc3ccc4c(n3)NCCC4)n(C)n2)c1` (centres unmarked) [Example 4, 3-(3,5-diisopropylphenyl)-4-[1-methyl-5-[2-(5,6,7,8-tetrahydro-1,8-naphthyridin-2-yl)ethoxy]pyrazol-3-yl]butanoic acid], the IC50 in assay [1] came out at 84 nM; in assay [2] it was 6 nM; in assay [3] it was 7 nM; in assay [4], 18 nM.

In the case of `COc1ccc(C2=CCOCC2)cc1[C@@H](CC(=O)O)Cc1csc(CCCc2ccc3c(n2)NCCC3)n1` [Example 37B, (R)-3-(5-(3,6-dihydro-2H-pyran-4-yl)-2-methoxyphenyl)-4-(2-(3-(5,6,7,8-tetrahydro-1,8-naphthyridin-2-yl)propyl)thiazol-4-yl)butanoic acid trifluoroacetate], the IC50 in assay [1] worked out at 3000 nM; in assay [2], 62 nM; in assay [3], 190 nM; in assay [4] it was 5600 nM.
